Test results published in patent US10828301B2, “2,4-pyrimidinediamine compounds and their uses” (Rigel Pharmaceuticals, Inc, priority 2002, dated 2020).

Assays:
[1] = tested on: cultured human mast cells (CHMC); experiment: CHMC low cell density IgE activation: tryptase and LTC4 assays; assay type: cell-based; settings: read-out: CHMC anti-IgE Tryptase
Protocol: Pellet CHMC cells (980 rpm, 10 min) and resuspend in pre-warmed MT. Add 65 ul of cells to each 96-well plate. Depending on the degranulation activity for each particular CHMC donor, load 1000-1500 cells/well. Mix four times followed by a 1 hr incubation at 37° C. […] Stimulate cells by adding 25 ul of 6× anti-IgE solution to the appropriate plates. Add 25 ul MT to un-stimulated control wells. Mix twice following addition of the anti-IgE. Incubate at 37° C. for 30 minutes. […] Spin plates at 1000 rpm for 10 min to pellet cells. Transfer 25 ul of supernatant to a 96-well black bottom plate and add 100 ul of freshly diluted tryptase substrate solution to each well. Incubate plates at room temperature for 30 min.
Leukotriene C4 (LTC4) is also quantified using an ELISA kit on appropriately diluted supernatant samples (determined empirically for each donor cell population so that the sample measurement falls within the standard curve) following the supplier's instructions.

[2] = tested on: cultured human mast cells (CHMC); experiment: CHMC low cell density ionomycin activation: tryptase assay; assay type: cell-based; settings: Low Density CHMC, ionomycin activation, tryptase readout, read-out: CHMC Ionomycin Tryptase
[3] = Homo sapiens, Mast cell, Low Density CHMC, anti-IgE activation, tryptase readout

IC50 [1, 3] [µM] | IC50 ([2]; Homo sapiens, Mast cell) [µM] | SMILES | further results
0.63 | > 10 | CN1C(=O)COc2ccc(Nc3ncc(F)c(Nc4cccc(O)c4)n3)cc21 [Compound R908703, 5-Fluoro-N4-(3-hydroxyphenyl)-N2-(N-methyl-1,4-benzoxazine-3-on-6-yl)-2,4-pyrimidinediamine] | –
0.445 | > 10 | CCOC(=O)c1cc2cc(Nc3ncc(F)c(Nc4cccc(O)c4)n3)ccc2[nH]1 [Compound R926615, N2-(2-Ethoxycarbonylindol-5-yl)-5-fluoro-N4-(3-hydroxyphenyl)-2,4-pyrimidinediamine] | –
> 10 | > 10 | Cc1cc(Nc2ncc(F)c(Nc3cc(C)c(O)cc3C)n2)c(C)cc1O [Compound R926623, N2,N4-Bis(2,5-dimethyl-4-hydroxyphenyl)-5-fluoro-2,4-pyrimidinediamine] | –
1.21 | > 10 | COc1cc(Nc2ncc(F)c(Nc3cccc(O)c3)n2)c(OC)cc1Cl [Compound R926857, N2-(4-Chloro-2,5-dimethoxyphenyl)-5-fluoro-N4-(3-hydroxyphenyl)-2,4-pyrimidinediamine] | –
0.551 | > 10 | CC(C)(CO)c1ccc(Nc2nc(Nc3ccc(OCCO)cc3)ncc2F)cc1 [Compound R935158, 5-Fluoro-N4-[4-(2-hydroxy-1,1-dimethylethyl)phenyl]-N2-[4-(2-hydroxyethoxy)phenyl]-2,4-pyrimidinediamine] | –
0.345 | > 10 | Fc1cnc(Nc2ccc3[nH]ccc3c2)nc1Nc1ccc2c(c1)OCCO2 [Compound R926748, N4-(3,4-Ethylenedioxyphenyl)-5-fluoro-N2-[(1H)-indol-5-yl]-2,4-pyrimidinediamine] | –
> 10 | > 10 | O=C(O)c1cc(Nc2ncc(F)c(Nc3ccc(O)c(C(=O)O)c3)n2)ccc1O [Compound R945041, N2,N4-Bis(3-carboxy-4-hydroxyphenyl)-5-fluoro-2,4-pyrimidinediamine] | –
– | – | CCOc1ccc(Nc2ncc([N+](=O)[O-])c(Nc3ccc(OCC)cc3)n2)cc1 [Compound R940090, N2,N4-Bis-(4-ethoxypenyl)-5-nitro-2,4-pyrimidinediamine] | IC50 ([1]; Low Density CHMC, anti-IgE activation, tryptase readout): > 10 µM; IC50 [2]: > 10 µM
0.598 | > 10 | Oc1cccc(Nc2nc(Nc3ccc4cc[nH]c4c3)ncc2F)c1 [Compound R926751, 5-Fluoro-N4-(3-hydroxyphenyl)-N2-[(1H)-indol-6-yl]-2,4-pyrimidinediamine] | –
7.73 | > 10 | Oc1cccc(Nc2nc(Nc3cccc(-c4nnn[nH]4)c3)ncc2F)c1 [Compound R926842, 5-Fluoro-N4-(3-hydroxyphenyl)-N2-[3-(tetrazol-5-yl)phenyl]-2,4-pyrimidinediamine] | –
> 10 | > 10 | COC(=O)c1cc2cc(Nc3ncc(F)c(Nc4ccc(Cl)cc4)n3)ccc2o1 [Compound R927026, N4-(4-Chlorophenyl)-5-fluoro-N2-(2-methoxycarbonylbenzofuran-5-yl)-2,4-pyrimidinediamine] | –
1.38 | > 10 | CCOc1ccc(Nc2ncc(F)c(Nc3ccc(OCC)c(N)c3)n2)cc1N [Compound R950139, N2,N4-Bis(3-amino-4-ethoxyphenyl)-5-fluoro-2,4-pyrimidinediamine] | –
– | > 10 | CCOc1ccc(Nc2ncc(F)c(Nc3ccc(OCC)cc3)n2)cc1 [Compound R070790, N2,N4-bis(4-ethoxyphenyl)-5-fluoro-2,4-pyrimidinediamine] | –
– | – | CNC(=O)COc1cccc(Nc2ncc(F)c(Nc3ccc4c(c3)C(=O)CCC4)n2)c1 [Compound R926947, 5-Fluoro-N4-(1,2,3,4-tetrahydro-1-oxonaphthalen-7-yl)-N2-[3-[(N-methylamino)carbonylmethyleneoxy]phenyl]-2,4-pyrimidinediamine] | IC50 [2]: > 10 µM
– | > 10 | COC(=O)c1cc2cc(Nc3ncc(F)c(Nc4ccc(OC)c(Cl)c4)n3)ccc2o1 [Compound R926950, N4-(3-Chloro-4-methoxyphenyl)-5-fluoro-N2-[2-(methoxycarbonyl)benzofuran-5-yl]-2,4-pyrimidinediamine] | –
7.75 | – | CCOC(=O)C1CCN(C(=O)c2cccc(Nc3nc(Nc4cccc(O)c4)ncc3F)c2)CC1 [Compound R926940, N4-[3-[[4-(Ethoxycarbonyl)piperidino]carbonyl]phenyl]-5-fluoro-N2-(3-hydroxyphenyl)-2,4-pyrimidinediamine] | –
1.45 | – | Oc1cccc(Nc2ncc(F)c(Nc3ccc(Cl)nc3)n2)c1 [Compound R927018, N4-(6-Chloropyridin-3-yl)-5-fluoro-N2-(3-hydroxyphenyl)-2,4-pyrimidinediamine] | –
– | – | CNC(=O)Cn1ncc2cc(Nc3ncc(F)c(Nc4ccc(OC(C)C)cc4)n3)ccc21 [Compound R935239, 5-Fluoro-N4-(4-isopropoxyphenyl)-N2-[1-(N-methylaminocarbonyl)methyl-indazoline-5-yl]-2,4-pyrimidinediamine] | IC50 [2]: > 10 µM

IC50 [1, 3] [µM] | IC50 ([2]; Homo sapiens, Mast cell) [µM] | SMILES | further results
– | > 10 | COC(=O)c1cc(Nc2ncc(F)c(Nc3ccc(OC(F)(F)F)c(C(=O)OC)c3)n2)ccc1OC(F)(F)F [Compound R950391, N2,N4-Bis(3-methoxycarbonyl-4-trifluoromethoxyphenyl)-5-fluoro-2,4-pyrimidinediamine] | –
0.708 | – | CC(C)(CO)c1ccc(Nc2nc(Nc3ccc4c(c3)OCCO4)ncc2F)cc1 [Compound R935149, N2-(3,4-Ethylenedioxyphenyl)-N4-[4-(2-hydroxy-1,1-dimethylethyl)phenyl]-5-fluoro-2,4-pyrimidinediamine] | –
7.95 | – | Nc1cccc(Nc2ccnc(Nc3cccc(N)c3)n2)c1 [Compound R950109, N2,N4-Bis(3-aminophenyl)-2,4-pyrimidinediamine] | –
4.9 | – | Cc1ccc(Nc2ccnc(Nc3ccc(C)c(N)c3)n2)cc1N [Compound R950130, N2,N4-Bis(3-amino-4-methylphenyl)-2,4-pyrimidinediamine] | –
2.41 | – | CN1C(=O)COc2ccc(Nc3nc(Nc4cccc(O)c4)ncc3F)cc21 [Compound R908709, 5-Fluoro-N2-(3-hydroxyphenyl)-N4-(N-methyl-1,4-benzoxazin-3-on-6-yl)-2,4-pyrimidinediamine] | –
– | > 10 | OCCOc1ccc(Nc2ncc(F)c(Nc3cccc(O)c3)n2)cc1 [Compound R935155, 5-Fluoro-N2-[4-(2-hydroxyethoxy)phenyl]-N4-(3-hydroxyphenyl)-2,4-pyrimidinediamine] | –
> 10 | – | O=C(O)c1cc2cc(Nc3ncc(F)c(Nc4cccc(O)c4)n3)ccc2[nH]1 [Compound R926479, N2-(2-Carboxyindol-5-yl)-5-fluoro-N4-(3-hydroxyphenyl)-2,4-pyrimidinediamine] | –
10 | – | CCOc1ccc(Nc2ccnc(Nc3ccc(OCC)c(N)c3)n2)cc1N [Compound R950142, N2,N4-Bis(3-amino-4-ethoxyphenyl)-2,4-pyrimidinediamine] | –
– | – | CNC(=O)CNc1cccc(Nc2ncc(F)c(Nc3cccc(O)c3)n2)c1 [Compound R950218] | IC50 [2]: > 10 µM
> 10 | – | Fc1cnc(NCc2ccco2)nc1NCc1ccco1 [Compound R925769, N2,N4-Bis(furfuryl)-5-fluoro-2,4-pyrimidinediamine] | –
2.33 | – | CC(C)Oc1ccc(Nc2ncc(F)c(Nn3cccc3)n2)cc1 [Compound R935276, 5-Fluoro-N2-(4-isopropoxyphenyl)-N4-(1H-pyrrol-1-yl)-2,4-pyrimidinediamine] | –
5.2 | – | COC(=O)c1cc(Nc2ncc(F)c(Nc3ccc(OC)c(C(=O)OC)c3)n2)ccc1OC [Compound R945066, N2,N4-Bis(4-methoxy-3-methoxycarbonylphenyl)-5-fluoro-2,4-pyrimidinediamine] | –
– | – | Cc1ccc(Nc2ccnc(Nc3ccc(C)c([N+](=O)[O-])c3)n2)cc1[N+](=O)[O-] [Compound R950153, N2,N4-Bis(4-methyl-3-nitrophenyl)-2,4-pyrimidinediamine] | IC50 ([1]; Homo sapiens, Mast cell): > 10 µM
9.98 | – | Nc1ccc(F)c(Nc2ncc(F)c(Nc3cc(N)ccc3F)n2)c1 [Compound R950158, N2,N4-Bis(5-amino-2-fluorophenyl)-5-fluoro-2,4-pyrimidinediamine] | –
4.81 | – | CCOC1CCCc2ccc(Nc3nc(Nc4cccc(O)c4)ncc3F)cc21 (centres unmarked) [Compound R926942, N4-(1-Ethoxy-1,2,3,4-tetrahydronaphthalen-7-yl)-5-fluoro-N2-(3-hydroxyphenyl)-2,4-pyrimidinediamine] | –
9.5 | – | Nc1c(F)ccc(Nc2ncc(F)c(Nc3ccc(F)c(N)c3F)n2)c1F [Compound R950138, N2,N4-Bis(3-amino-2,4-difluorophenyl)-5-fluoro-2,4-pyrimidinediamine] | –
– | – | O=[N+]([O-])c1cc(Nc2ccnc(Nc3ccc(F)c([N+](=O)[O-])c3)n2)ccc1F [Compound R950152, N2,N4-Bis(4-fluoro-3-nitrophenyl)-2,4-pyrimidinediamine] | IC50 ([1]; Homo sapiens, Mast cell): 10 µM
> 10 | – | Cc1ccc(N)cc1Nc1ncc(F)c(Nc2cc(N)ccc2C)n1 [Compound R950157, N2,N4-Bis(5-amino-2-methylphenyl)-5-fluoro-2,4-pyrimidinediamine] | –

SMILES | IC50 [1, 3] [µM] | IC50 ([2]; Homo sapiens, Mast cell) [µM] | further results
CC(C)(C)OC(=O)C=Nc1cccc(Nc2ncc(F)c(Nc3cccc(N=CC(=O)OC(C)(C)C)c3)n2)c1 [Compound R950177, N2,N4-Bis(3-tert-butoxycarbonylmethyleneaminophenyl)-5-fluoro-2,4-pyrimidinediamine] | 2.36 | 8.43 | –
